Laboratory results as given in ChEMBL document CHEMBL1141201, “Phosphinate, sulfonate, and sulfonamidate dipeptides as potential inhibitors of Escherichia coli aminopeptidase N” (Bioorg Med Chem Lett, 2005).

target: T1, Aminopeptidase N (Escherichia coli K-12, UniProt P04825); assay: Inhibitory activity against aminopeptidase N (PepN) from Escherichia coli
T1 sequence (P04825 whole entry): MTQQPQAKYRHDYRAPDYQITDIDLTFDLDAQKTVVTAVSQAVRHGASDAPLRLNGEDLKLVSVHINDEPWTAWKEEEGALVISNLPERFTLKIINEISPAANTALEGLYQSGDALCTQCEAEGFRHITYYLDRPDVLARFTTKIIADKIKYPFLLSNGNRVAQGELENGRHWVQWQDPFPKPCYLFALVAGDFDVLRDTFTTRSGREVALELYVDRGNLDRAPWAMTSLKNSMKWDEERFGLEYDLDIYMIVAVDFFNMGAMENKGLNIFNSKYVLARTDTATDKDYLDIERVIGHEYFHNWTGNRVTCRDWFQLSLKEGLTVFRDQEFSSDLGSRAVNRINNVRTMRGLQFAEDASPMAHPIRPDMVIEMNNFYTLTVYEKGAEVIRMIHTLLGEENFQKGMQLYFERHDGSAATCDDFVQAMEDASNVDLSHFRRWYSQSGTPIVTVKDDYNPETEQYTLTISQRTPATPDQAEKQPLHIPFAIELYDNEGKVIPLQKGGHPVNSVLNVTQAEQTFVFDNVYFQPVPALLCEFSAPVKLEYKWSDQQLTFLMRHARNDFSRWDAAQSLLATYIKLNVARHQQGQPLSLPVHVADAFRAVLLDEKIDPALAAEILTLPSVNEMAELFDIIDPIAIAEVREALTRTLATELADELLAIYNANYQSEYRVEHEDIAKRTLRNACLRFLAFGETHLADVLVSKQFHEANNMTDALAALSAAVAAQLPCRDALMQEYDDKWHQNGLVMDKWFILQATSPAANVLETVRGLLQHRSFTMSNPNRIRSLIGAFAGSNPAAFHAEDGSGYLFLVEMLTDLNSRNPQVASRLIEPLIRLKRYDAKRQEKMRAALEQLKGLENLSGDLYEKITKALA

Compound | Ki
CCCCCCCCC(CP(=O)(O)C(C)N)C(=O)O (stereo not given) | 1.1 µM
C/C(=C\P(=O)(O)C(C)N)C(=O)O (stereo not given) | 1 µM
CC(CP(=O)(O)C(C)N)C(=O)O (stereo not given) | 10 µM
CC(NS(=O)(=O)C(C)N)C(=O)O (stereo not given) | > 300 µM
CC(OS(=O)(=O)C(C)N)C(=O)O (stereo not given) | > 300 µM
